Assay results as given in patent US20220175675A1, “ENCAPSULATING MOLECULES IN FAT GLOBULES” (The Regents of the University of California, priority 2019, published 2022).

Experiments:
[1] = Encapsulation of hydrophobic compounds into milk fat globules (loading capacity, encapsulation efficiency); format: physicochemical, bovine; conditions: 10% v/v ethanol, 30 min
Procedure: Raw milk was procured from a local market and stored at 4° C. Milk was used for up to 4 days post purchase. MFGs were separated from raw milk using centrifugal separation following a modified version of the method by Gallier et al. (2010) (12). First, raw milk was diluted with Milli-Q water at 9:1 water to milk, and the solution was centrifuged at 3,000×g for 5 min using a fixed angle centrifuge rotor. Cream was then skimmed off the sides of the centrifuged tubes after discarding the aqueous phase. In order to remove more of the milk serum components, cream was reconstituted in water to reach 4% w/v, and subjected to another step of centrifugation at 3,000×g for 5 min Cream was collected as detailed prior, then reconstituted to 20% w/v in Milli-Q water. All separation steps were completed at room temperature.
Encapsulation of test compounds in MFGs was accomplished by mixing ethanolic stock solution of a compound with 20% w/v cream suspended in water. The mixture was gently inverted several times to mix, then allowed in incubate in the dark.
To test the effect of incubation temperature on the partitioning and encapsulation yield and efficiency, RA was added at 250 μM concentration and was allowed to incubate with MFGs for 30 min at 4, 22, and 40° C.
To quantify the amount of compound encapsulated in MFGs, cream was separated from ethanol-containing aqueous phase via centrifugal separation at 3,000 x g for 5 min. Cream was skimmed and added to methanol at 50 mg/mL and vortexed vigorously for 1 min, then centrifuged at 16,000×g for 10 min. Top layer of methanol was collected and absorbance was measured at appropriate wavelength for each compound. An absorbance blank was prepared following the same encapsulation and separation steps in the absence of compound. λmax in methanol (nm) for each compound is reported in Table 1.
Cream (20% w/v in Milli-Q water) that was separated following the steps in Example 2 was further separated via centrifugation at 3,000×g for 5 min. Fat content in cream was measured using a modified Folch method (13). An additional washing step was incorporated where the chloroform/water interface was washed with 1:1 water/methanol solution.

[2] = Loading of vitamin D3 in bovine milk fat globules; format: physicochemical; conditions: for EE %, 1% v/v ethanol / EE %, 10% v/v ethanol / LY, 1% v/v ethanol / LY, 10% v/v ethanol: Bovine MFGs, 30 minutes
Procedure: (§1) Raw milk was diluted with Milli-Q water at 9:1 water to milk. Cream was separated from diluted milk via centrifugation at 3,000×g for 5 min. Cream was collected and reconstituted in water at 4% w/v concentration. The mixture was then further centrifuged at 3,000×g for 5 min. The cream was then collected and reconstituted to desired weight/volume in water (20% w/v in water).
(§2) Encapsulation of VD3 was achieved by incubation of compound's ethanolic solution with 20% w/v cream suspended in water. Once well mixed by gently inverting the tube, the contents were allowed to incubate in the dark. […] Significant values were reported with a 95% confidence interval, i.e. p<0.05.
Incubation time was varied: 15, 30, 45, and 60 min. The effect of incubation time on the encapsulation of VD3 in bovine MFGs was assessed using a t-test with adjusted significance level using Bonferroni correction (p=0.008). These statistical analyses were carried out using Microsoft Excel 2010 (Microsoft Inc., Bellevue, WA, U.S.A.). All procedures were conducted with minimal exposure to light. The experiments were conducted in triplicates.
(§3) At the end of the incubation period with VD3, cream was separated by centrifuging the suspension at 3,000×g for 5 min Cream was skimmed off the top with particular care not to include any of the aqueous phase. Methanol was added at 50 mg/mL and vortexed vigorously for 1 min. The mixture was then centrifuged at 3,000×g for 30 min. Liquid phase was collected and absorbance was measured at 264 nm. Absorbance blank was prepared fresh during every encapsulation run by introducing ethanol to cream suspended in water. Absorbance of the blank was subtracted from test samples to remove the absorbance of solvent, lipids, and other MFGs components. All experiments were conducted in triplicates.
(§4) Fat content in cream was measured to calculate the loading yield. The fat was isolated using the same set of preparation steps detailed in Example 13 with the addition of the last centrifugation step to recover cream after at the end of the loading process. The total fat content was determined using a modified Folch method (Folch, Lees, & Sloane-Stanley, 1957) where an additional step of washing the chloroform/water interface with 1:1 water/methanol solution was added to remove milk serum components. The loading yield of VD3 in milk fat was calculated as follows: […]
(§5) where CE is the VD3 extracted from MFGs (μg), and MF is the mass of milk fat (g) in MFGs suspension. The extraction procedure was conducted in triplicates using independent milk samples.

[3] = Loading of vitamin D3 in ovine milk fat globules; format: physicochemical; conditions: for EE %, 1% v/v ethanol / EE %, 10% v/v ethanol / LY, 1% v/v ethanol / LY, 10% v/v ethanol: Ovine MFGs, 30 minutes
Procedure: as §1, §2, §3, §4, §5

Description for physchem: One such molecular property that is used to predict partitioning potential is the octanol—water partition coefficient; Log P, which is the logarithm of the ratio of the solute concentration in the octanol phase to the solute concentration in the water phase, at a defined temperature.

In the case of `C=C1CC[C@H](O)C/C1=C/C=C1\CCC[C@]2(C)[C@@H]([C@H](C)CCCC(C)C)CC[C@@H]12` [Cholecalciferol], the “% Encapsulation efficiency” value ([1]; 50 μM added compound, room temperature) is reported as 68.60 ± 6.30%, the “% Encapsulation efficiency” value ([1]; 100 μM added compound, room temperature) is reported as 69.58 ± 6.44% and the “% Encapsulation efficiency” value ([1]; 150 μM added compound, room temperature) is reported as 67.62 ± 3.67%. For the same molecule, the “% Encapsulation efficiency” value ([1]; 200 μM added compound, room temperature) was 63.59 ± 1.43%, the “% Encapsulation efficiency” value ([1]; 250 μM added compound, room temperature) was 49.84 ± 3.74 % and the “% Encapsulation efficiency” value ([1]; 500 μM added compound, room temperature) was 45.25 ± 3.00 %. For the same molecule, the “% Encapsulation efficiency” value ([1]; 1000 μM added compound, room temperature) was 24.77 ± 0.84 %, the “% Encapsulation efficiency” value ([1]; 1500 μM added compound, room temperature) was 28.92 ± 3.43 % and the “% Encapsulation efficiency” value ([1]; 2000 μM added compound, room temperature) was 19.66 ± 1.05 %. For the same molecule, the “% Encapsulation efficiency” value ([1]; 2500 μM added compound, room temperature) was 19.22 ± 2.88 %, the “maximal loading capacity (LC)” value ([1]; maximal value over 50-2500 μM, room temperature) was 22.12 μg per gram of milk fat and the “encapsulation efficiency (EE %), maximal/overall value” ([1]; over tested concentrations) was 69%. For the same molecule, the “EE %, 1% v/v ethanol” value ([2]; 50 μM) was 20.81 ± 8.82%, the “EE %, 10% v/v ethanol” value ([2]; 50 μM) was 27.72 ± 7.94% and the “LY, 1% v/v ethanol” value ([2]; 50 μM) was 19.78 ± 8.38 μg of VD3 per gram of milk fat. The “LY, 10% v/v ethanol” value ([2]; 50 μM) was 26.34 ± 7.55 μg of VD3 per gram of milk fat, the “EE %, 1% v/v ethanol” value ([2]; 100 μM) was 18.45 ± 0.91% and the “EE %, 10% v/v ethanol” value ([2]; 100 μM) was 21.09 ± 1.10%. The “LY, 1% v/v ethanol” value ([2]; 100 μM) was 35.07 ± 1.73 μg of VD3 per gram of milk fat, the “LY, 10% v/v ethanol” value ([2]; 100 μM) was 40.09 ± 2.10 μg of VD3 per gram of milk fat and the “EE %, 1% v/v ethanol” value ([2]; 150 μM) was 15.43 ± 1.27%. The “EE %, 10% v/v ethanol” value ([2]; 150 μM) was 20.67 ± 1.97%, the “LY, 1% v/v ethanol” value ([2]; 150 μM) was 44.00 ± 3.63 μg of VD3 per gram of milk fat and the “LY, 10% v/v ethanol” value ([2]; 150 μM) was 58.93 ± 5.61^†¥ μg of VD3 per gram of milk fat. The “EE %, 1% v/v ethanol” value ([2]; 200 μM) was 12.31 ± 3.56%, the “EE %, 10% v/v ethanol” value ([2]; 200 μM) was 18.51 ± 1.52 % and the “LY, 1% v/v ethanol” value ([2]; 200 μM) was 46.78 ± 13.52 μg of VD3 per gram of milk fat. For the same molecule, the “LY, 10% v/v ethanol” value ([2]; 200 μM) was 70.37 ± 5.79^†‡¥ μg of VD3 per gram of milk fat, the “EE %, 1% v/v ethanol” value ([2]; 250 μM) was 14.28 ± 1.89% and the “EE %, 10% v/v ethanol” value ([2]; 250 μM) was 16.85 ± 2.94 %. For the same molecule, the “LY, 1% v/v ethanol” value ([2]; 250 μM) was 67.84 ± 9.00 μg of VD3 per gram of milk fat, the “LY, 10% v/v ethanol” value ([2]; 250 μM) was 80.07 ± 14.00 μg of VD3 per gram of milk fat and the “VD3 loaded into MFGs (up to)” value ([2]; bovine MFGs) was “Up to 80 μg/g milk fat”. For the same molecule, the “reduction in the encapsulation yield with extended incubation” value ([2]; bovine MFGs, incubation up to 60 min vs 45 min, 10% v/v ethanol, 250 μM VD3) was “approx. 8%”, the “EE %, 1% v/v ethanol” value ([3]; 50 μM) was 11.75 ± 0.44% and the “EE %, 10% v/v ethanol” value ([3]; 50 μM) was 37.83 ± 10.36%. The “LY, 1% v/v ethanol” value ([3]; 50 μM) was 11.17 ± 0.41 μg of VD3 per gram of milk fat, the “LY, 10% v/v ethanol” value ([3]; 50 μM) was 35.95 ± 9.85 μg of VD3 per gram of milk fat and the “EE %, 1% v/v ethanol” value ([3]; 100 μM) was 10.70 ± 3.12%. For the same molecule, the “EE %, 10% v/v ethanol” value ([3]; 100 μM) was 20.29 ± 4.85 %, the “LY, 1% v/v ethanol” value ([3]; 100 μM) was 20.35 ± 5.93 μg of VD3 per gram of milk fat and the “LY, 10% v/v ethanol” value ([3]; 100 μM) was 38.56 ± 9.23 μg of VD3 per gram of milk fat. The “EE %, 1% v/v ethanol” value ([3]; 150 μM) was 10.17 ± 0.67%, the “EE %, 10% v/v ethanol” value ([3]; 150 μM) was 18.95 ± 6.34 % and the “LY, 1% v/v ethanol” value ([3]; 150 μM) was 29.01 ± 1.92 μg of VD3 per gram of milk fat. For the same molecule, the “LY, 10% v/v ethanol” value ([3]; 150 μM) was 54.03 ± 18.08 μg of VD3 per gram of milk fat, the “EE %, 1% v/v ethanol” value ([3]; 200 μM) was 8.49 ± 1.65% and the “EE %, 10% v/v ethanol” value ([3]; 200 μM) was 14.30 ± 3.90 %. The “LY, 1% v/v ethanol” value ([3]; 200 μM) was 32.28 ± 6.26 μg of VD3 per gram of milk fat, the “LY, 10% v/v ethanol” value ([3]; 200 μM) was 54.33 ± 14.83 μg of VD3 per gram of milk fat and the “EE %, 1% v/v ethanol” value ([3]; 250 μM) was 8.13 ± 1.27%. The “EE %, 10% v/v ethanol” value ([3]; 250 μM) was 10.31 ± 1.14 %, the “LY, 1% v/v ethanol” value ([3]; 250 μM) was 38.62 ± 6.06 μg of VD3 per gram of milk fat and the “LY, 10% v/v ethanol” value ([3]; 250 μM) was 49.00 ± 5.43 μg of VD3 per gram of milk fat. For the same molecule, the “VD3 loaded into MFGs (up to)” value ([3]; ovine MFGs) was at most 54 μg/g milk fat and the logP (physchem) was about 7.5.
